Measurements: patent publication US7582620B2, “Use of mannan from saccharomyces cerevisiae for the treatment of asthma” (The University of Tennessee Foundation, priority 2003, dated 2009)

Assays:
[1] = test system: bovine airway smooth muscle cells; assay type: cell-based
Protocol: (§1) Cell counts and cytotoxicity are assessed by tetrazolium salt reduction (MTT) […] assay in parallel experiments. Millipore filtered MTT (5 mg/ml, Sigma Chemical Co., St Louis, Mo.) dissolved in phosphate buffered saline (PBS, pH 7.2) is added to the microtiter wells (10 μl/well, 20 μl/16 mm well) at the end of the experimental period. After incubating at 37° C. for 4 h, media is removed from the microtiter wells and acidified with 0.04 M HCl. 2-propane/isopropanol is added to the wells at 200 μl/well or 400 μl/16 mm well for human airway smooth muscle cells. The plates are left at room temperature for 30 min and optical density is obtained by an ELISA reader (EL340 Microplate, Bio-Tek instruments, Winooski, Vt.) at 570 nm wave length. The results obtained by MTT assay correlate well with the viable cell counts obtained by the Trypan blue method using hemocytometer (Sigma cell count instruction manual). Cytotoxicity also is measured by LDH assays (Sigma). Release of LDH greater than 5% is considered cytotoxic.
Antisense human airway smooth muscle cell mannose receptor morpholino DNA oligonucleotides (M-oligos, 25 mer, 5 μM) delivered by the scrape method inhibited b hexosaminidase-induced mitogenesis in bovine ASMC by 37% compared to no inhibition by sense M-oligos (data not shown). […]

[2] = test system: human airway smooth muscle cells; assay: Mitogenic effect of growth factors in human airway smooth muscle cells (MTT); assay type: cell-based; conditions: for mitogenic response after repeated passages: human ASMC of the same batch, p10
Protocol: as §1
[…] Cells were stimulated with Hex A (50 nM), PDGF (0.1 nM), EGF (100 nM), bFGF (5 nM), thrombin (Thr, 1 unit/ml), FBS (5% vol/vol), or vehicle (V; PBS for Hex; 0.1% BSA in 4 mM HCl for PDGF; 0.1% BSA for EGF and bFGF; unstimulated for Thr and FBS). Viable cell numbers were assessed by MTT assays after 42 h stimulation. […] Experiments were repeated three times.

[3] = test system: OVA-sensitized and -challenged mice; assay: Histopathology of trachea and lung, OVA-sensitized murine model; assay type: in vivo, mouse
[4] = test system: human airway smooth muscle cells; assay: PDGF-induced mitogenesis in human airway smooth muscle cells (MTT); assay type: cell-based; conditions: mannan 0.1-1 mg/ml 30 min before 0.1 nM PDGF, 42 h, human ASMC
Protocol: as §1
(§2) Human airway smooth muscle cells in 24-well plates were starved for 18h in medium containing 0.1% FBS. Mannan in concentrations ranging from 0.1-1 mg/ml (Sigma) was added to the cells 30 min prior to the addition of 50 nM Hex A, 0.1 nM PDGF or vehicle (PBS for Hex or 0.1% BSA in 4 mM HCl for PDGF). Viable cell numbers were assessed by MTT assays after 42h stimulation. […]

[5] = test system: human airway smooth muscle cells; assay: Hex A-induced mitogenesis in human airway smooth muscle cells (MTT); assay type: cell-based; conditions: mannan 0.1-1 mg/ml 30 min before 50 nM Hex A, 42 h, human ASMC
Protocol: as §1, §2

[6] = test system: bovine airway smooth muscle cells; assay: Hex A-induced mitogenesis in bovine airway smooth muscle cells; assay type: cell-based; conditions: bovine ASMC
Protocol: Measurement of ^3H-thymidine incorporation as an assessment of the rate of DNA synthesis is performed as described previously (Lew et al., 1994) with a modification. After the cells reach confluency and contact-inhibited in microtiter wells (16 mm wells for human airway smooth muscle cells), the medium is replaced with medium M199 (Cellgro, Mediatech, Washington D.C.) or SmBM (for huASMC) containing 0.1% vol/vol fetal bovine serum (FBS, Hyclone Lab. Inc., Logan, Utah) 48 h before exposure to test substances. ^3H-thymidine (0.5 μCi/well or 2.5 μC/16 mm well, sp act 10 Ci/mmol, Amersham Corp., Arlington Heights, Ill.) is added to the cells 18 h after the addition of test substances and cells are harvested 18 h later. Radioactivity is quantified in a liquid scintillation counter (2000 CA; Packard Instrument Co., Downers Grove, Ill.). Experiments are performed in quadruplicate and repeated 3 times.
Mannan, a polymer of mannose, is a specific mannose receptor blocker.

[7] = test system: OVA-sensitized wild type FVB/N mice
Protocol: Enhanced pause (Penh) is measured using the software provided by the manufacturer.
Wild type FVB/N mice, ages 6-8 weeks, were immunized with ovalbumin (20 μg in Imject®-Alum, i.p.) on days 0, 14, 21 as described in Example 6. Non-immunized mice received i.p. injection of Alum only. Thirty minutes before each of the three ovalbumin challenges on days 28-30, the mice were pretreated via aerosol with 100 or 300 mg yeast mannan in 2 ml dH2O or 5 EU E. Coli endotoxin (Sigma Chemical Co., St Louis, Mo.) in 2 ml saline. Experiments were performed in quadruplicate and repeated four times.
Measurements of airway hyper-reactivity (AHR) and broncho alveolar lavage were performed on day 31.
Methacholine sensitivity and reactivity were measured by Penh parameter in spontaneously breathing animals on day 31 (FIG. 9).

[8] = test system: TNFα secretion, Hex secretion in BAL fluids; assay: TNFα and Hex secretion in BAL fluids, OVA-sensitized murine model; assay type: in vivo, mouse; conditions: aerosolized mannan pretreatment, day 31
Protocol: The activities of Hex are determined as previously described (Lew et al., 1991). Samples (50 μl) are incubated with 100 μl of pre-warmed buffered substrate (5 mM p-nitrophenyl-2-deoxy-β-D-glucosaminide in 0.1 M citrate/phoshate buffer, pH 4.5) in 96-well microtirter plates for 1 h at 37° C. After incubation, the reactions are stopped by the addition of 100 μl of 0.5 M boric acid/NaOH buffer, pH 10.6. p-nitrophenol released by the hydrolytic activity is quantified spectrophotometrically by using a Biotek ELISA reader at 405 nm wave length. The Beer-Lambert Law and molecular extinction coefficient for p-nitrophenol (E=18,700) are applied to obtain units of specific activity expressed as micromoles of substrate cleaved/h/10^6 cells. Purified Hex (Sigma) is tested in each assay as a positive internal control.
Immediately after measuring MCh responsiveness, animals are anesthetized with Ketamine/Xylazine at 50/50 mg/kg and lungs are lavaged once via tracheal tube with 1 ml phosphate buffered saline (PBS, 37° C.). The broncho alveolar lavage_fluid is analyzed for Hex activity and differential cell count. Hex activity in broncho alveolar lavage_fluids is 262±33 μmoles/hr in immunized mice versus 92±12 in non-immunized mice.
Experiments were performed in quadruplicate and repeated four times.
Histopathology and immunohistology were performed on lungs and airways.

[9] = test system: naive wild type FVB/N mice; assay: Airway hyperreactivity after aerosolized Hex in naive mice (methacholine challenge, Penh); assay type: in vivo, mouse; conditions: aerosolized human Hex A 1 mg every other day for 2 weeks, day 15
Protocol: Six week old FVB/N mice were treated with aerosolized human Hex A (1 mg) or vehicle (PBS) every other day for 2 weeks. On day 15, lung physiology was non-invasively assessed by methacholine (Mch) challenge and changes in pulmonary resistance (pause enhancement, Penh).

Ethoxylated polyethylenimine [EPEI]
concentration beyond which the delivery system was cytotoxic [1]: > 3 μl/ml

PDGF [reference compound]
mitogenic response after repeated passages [2]: responded poorly

mannan
trachea histology (H&E): trachealis muscle and epithelial layer ([3]; aerosolized mannan 300 mg): Trachealis muscle has normal appearance and the epithelial layer is intact | peribronchiolar cellular infiltration (H&E, lung) ([3]; mannan 300 mg pretreated mouse): marked decrease in peribronchiolar cellular infiltration in 3 out of 4 bronchioles | inhibitory effect on PDGF-induced mitogenesis [4]: lack of inhibitory effect | inhibition of Hex A-induced mitogenesis [5]: inhibited by mannan in a concentration dependent manner | inhibition of Hex A-induced mitogenesis [6]: inhibited by mannan in a concentration dependent manner | effect on OVA-induced airway hyper-reactivity (Penh) ([7]; aerosol 30 min before each OVA challenge on days 28-30 (mannan 100 or 300 mg, endotoxin 5 EU), measured on day 31): Blocks Airway Hyper-Reactivity | duration of the inhibitory effect ([7]; after the last dose of aerosolized yeast mannan): at least four | general condition of the treated mice ([7]; mouse, in vivo): remained healthy and active | induction of Hex secretion in BAL fluids [8]: did not induce | inhibition of TNFα secretion in BAL fluids [8]: 85-100%

thrombin [reference compound]
mitogenic response after repeated passages [2]: responded poorly

B1: Hex A: human placental b hexosaminidase A (Sigma), lysosomal hydrolase, mannosyl-rich ligand of ASM-MR (protein)
chain 1: TLEKNVLVVSVVTPGCNQLPTLESVENYTLTINDDQCLLLSETVWGALRGLETFSQLVWKSAEGTFFINKTEIEDFPRFPHRGLLLDTSRHYLPLSSILDTLDVMAYNKLNVFHWHLVDDPSFPYESFTFPELMRKGSYNPVTHIYTAQDVKEVIEYARLRGIRVLAEFDTPGHTLSWGPGIPGLLTPCYSGSEPSGTFGPVNPSLNNTYEFMSTFFLEVSSVFPDFYLHLGGDEVDFTCWKSNPEIQDFMRKKGFGEDFKQLESFYIQTLLDIVSSYGKGYVVWQEVFDNKVKIQPDTIIQVWREDIPVNYMKELELVTKAGFRALLSAPWYLNRISYGPDWKDFYIVEPLAFEGTPEQKALVIGGEACMWGEYVDNTNLVPRLWPRAGAVAERLWSNKLTSDLTFAYERLSHFRCELLRRGVQAQPLNVGFCEQEFEQT
chain 2: TQVQQLLVSITLQSECDAFPNISSDESYTLLVKEPVAVLKANRVWGALRGLETFSQLVYQDSYGTFTINESTIIDSPRFSHRGILIDTSRHYLPVKIILKTLDAMAFNKFNVLHWHIVDDQSFPYQSITFPELSNKGSYSLSHVYTPNDVRMVIEYARLRGIRVLPEFDTPGHTLSWGKGQKDLLTPCYSRQNKLDSFGPINPTLNTTYSFLTTFFKEISEVFPDQFIHLGGDEVEFKCWESNPKIQDFMRQKGFGTDFKKLESFYIQKVLDIIATINKGSIVWQEVFDDKAKLAPGTIVEVWKDSAYPEELSRVTASGFPVILSAPWYLDLISYGQDWRKYYKVEPLDFGGTQKQKQLFIGGEACLWGEYVDATNLTPRLWPRASAVGERLWSSKDVRDMDDAYDRLTRHRCRMVERGIAAQPLYAGYCNHENM
airway hyperreactivity (Penh, methacholine challenge) [9]: increased airway hyperreactivity | mitogenic effect (viable cell numbers, MTT) ([2]; Hex A 50 nM, 42 h stimulation, serum-starved cells, passage #5): comparable to that of PDGF and fetal bovine serum | mitogenic response after repeated passages [2]: responded poorly
